This passage reports EC50 results from PMC4081560 (PLoS ONE, 2014).

In this experiment the test system is tested viruses (K/09, rK09/NA:Y275, K/2785). The class given is cell-based, 2009 pandemic H1N1 virus. The following applies: read-out: concentration sufficient to restrict viral replication (EC50).

Each structure is given as a SMILES string.

On to `NC(=O)c1nc(F)cnc1O` [Favipiravir, 6-fluoro-3-hydroxy-2-pyrazinecarboxamide], for which the EC50 was 8.39 to 14.7 µM.
